{"source": "patent US5232917A", "about": "“Methods, compositions, and compounds for allosteric modulation of the GABA receptor by members of the androstane and pregnane series” (priority 1991, dated 1993)", "key": {"[1]": {"system": "metrazol-induced convulsions", "conditions": "Swinyard & Woodhead, 1982; cited from earlier work"}, "[2]": {"conditions": "Swinyard & Woodhead, 1982; cited from earlier work"}, "[3]": {"system": "number of light/dark transitions (anxiety)", "conditions": "Crawley et al., cited from earlier work; for effect on number of light/dark transitions (literature): Blumstein and Crawley, 1983"}, "[4]": {"system": "picrotoxin-induced convulsions", "conditions": "Swinyard & Woodhead, 1982; cited from earlier work"}, "[5]": {"system": "strychnine-induced convulsions", "design": "key to ED50 STR (strychnine): NP: no protection", "conditions": "Swinyard & Woodhead, 1982; cited from earlier work"}, "[6]": {"system": "maximal electroshock seizure", "conditions": "Swinyard & Woodhead, 1982; cited from earlier work"}, "[7]": {"system": "GABA receptor complex (36Cl uptake, cerebral cortical synaptoneurosomes)", "assay": "GABA-stimulated 36Cl uptake in rat cerebral cortical synaptoneurosomes", "format": "biochemical, rat (male Sprague-Dawley)", "description": "In addition, the ability of the BZ clonazepam to modulate ^36 Cl uptake in the presence or absence of 5α-pregnandiol was evaluated.\nThe homogenate was diluted to a final volume of 40 mL with buffer and filtered through three layers of Nylon mesh (160 μm).\nAliquots of membrane preparation (200 μL) were preincubated at 30° C. for 10 min. The interaction was initiated by the simultaneous addition of drugs/steroids and 0.2 mL ^36 Cl (New England Nuclear Boston, Mass., 0.55 mCi/mmol, 0.8 μCi/ml) resulting in a total incubation volume of 0.4 mL. Steroids and test drugs were solubilized in dimethylsufoxide (DMSO) and added to the reaction mixture in 2 μL aliquots. An equal volume of vehicle was always included in the control reaction mixture. The mixture was gently mixed and ^36 Cl uptake terminated after 5 sec by the of 5 mL of ice cold buffer containing 100 μM picrotoxin (Sigma Chem Co.) followed immediately by rapid filtration through glass fiber filters (Whatman GF/C) under vacuum. The filters were washed twice with 5 mL of ice-cold buffer and the filter-bound radioactivity quantitated by liquid scintillation spectrophotometry. Specific uptake was calculated by subtracting the amount of ^36 Cl bound to the filters in the absence of synaptoneurosomes from that observed in their presence. Percent enhancement represents percent increase in uptake over that of basal ^36 Cl uptake. Statistical comparisons utilized the analysis of variance (ANOVA)."}, "[8]": {"system": "(+)bicuculline-induced seizures", "conditions": "Swinyard & Woodhead, 1982; cited from earlier work"}, "[9]": {"system": "sedative potential (rotorod)", "conditions": "Swinyard & Woodhead, 1982; cited from earlier work"}, "punished responding": {"system": "punished responding", "assay": "Vogel conflict paradigm (lick suppression)", "format": "in vivo, mice (male N.I.H. Swiss-Webster)", "conditions": "CDP 10 mg/kg", "text": "An Anxio-Monitor (Omnitech Electronics, Columbus, Ohio) was used for measuring lick suppression. The testing chamber consisted of a clear plexiglass box (29 cm×29 cm×23 cm) with a metal drinking tube located 2.5 cm from the floor and extending 2 cm into the box. The shock was applied through the drinking spout and was controlled by the Anxio-Monitor. […] The reinforcer was 0.1M sucrose.\nThe conflict test procedure described by Vogel et al. (1980) was employed. This procedure is a modification of the original lick suppression test first described by Vogel et al. (1971). After 24 hr. of water deprivation,mice were allowed to explore the test apparatus and drink without punishment for 10 min. or 100 licks. […] Mice were allowed unpunished access to the drinking tube for 20 licks, thereafter, every 10th lick was punished with 0.1 mA shock. The test duration was 5 min.\n(§1) The vehicle control data were analyzed across test days using an 1-way analysis of variance (ANOVA). […] The dose-response curves were then analyzed using an 1-way ANOVA, followed by Dunnett's t-test for individual comparisons between doses and control. The open-field and habituated locomotor data were analyzed using ANOVA followed by Dunnett's t-test. […] All data is expressed as the mean±S.E.M."}, "locomotor activity": {"system": "locomotor activity", "assay": "Locomotor activity in habituated mice", "format": "in vivo, mice (male N.I.H. Swiss-Webster)", "description": "For evaluation of a drug's effects on general activity, mice were first habituated to the open-field apparatus for 15 min. The following day, mice were pretreated with a test drug and placed in the center of the activity chambers. The total distance traveled was measured for 10 min.\nas §1"}, "open-field activity": {"system": "open-field activity", "assay": "Open-field activity test", "format": "in vivo, mice (male N.I.H. Swiss-Webster)", "conditions": "diazepam 10 mg/kg", "text": "(§2) The light/dark transition test (Crawley and Goodwin, 1980) is based on the observation that rodents naturally tend to explore novel environments, but open, brightly lit arenas are aversive to the rodents and inhibit exploratory behavior (Christmas and Maxwell, 1970; File, 1980). […] Similar to the light/dark transition test, the open-field test measures the antagonism between the tendency to explore a novel environment and the tendency to remain still in an aversive environment (brightly lit arena). […] The open-field test provides a simple, non-punished assessment of the potential anxiolytic properties of novel compounds. Finally, 3α-OH-DHP was tested for anxiolytic properties in a Vogel conflict paradigm. The ability of BZs to attenuate the suppression of behavior by punishment in conflict paradigms is well established (Gellar et al., 1962; Vogel et al., 1971).\n(§3) Male N.I.H. Swiss-Webster mice (Harlan) weighing 15-20 g were used in all experiments. The mice were housed 4/cage in polyethylene cages with sawdust bedding. The colony room was environmentally controlled (22° C.) with a 12 hr. light/dark cycle (0600-1800 hrs.). The mice had free access to food and water. The experiments were run from 0700-1500 hrs. and groups were counterbalanced for time of day effects.\nAs a secondary measure of anxiolytic effects, naive mice were placed in the center of a large, brightly lit plexiglass box (42×42×30.5 cm) and the total distance traveled was measured during a 10 min. test period. […] The Digiscan Activity Monitor (Omnitech Electronics, Columbus, Ohio) includes 16 photobeams that surround the box. The activity monitor is linked to a computer through a Digiscan Analyzer (Omnitech Electronics) and the data is analyzed using the Integrated Lab Animal Monitoring System (Omnitech Electronics). The mice were administered drugs as described for light/dark transitions.\n(§4) 2-Hydroxypropyl β-cyclodextrin Diazepam and chlordiazepoxide are available from Sigma, Co. (St. Louis, Mo.). CGS-8216 was obtained from Ciba-Geigy (Summit, N.J.). All drugs were dissolved in 20% β-cyclodextrin in water and sonicated overnight. All drugs were administered intraperitoneally in a volume of 100 μL/20 g. CGS-8216 was administered subcutaneously in a volume of 100 μL/20 g.\nas §1"}, "[10]": {"system": "number of light/dark transitions (anxiety)", "assay": "Light/dark transition test", "format": "in vivo, mice (male N.I.H. Swiss-Webster)", "text": "as §2, §3\nThe method used was previously described by Crawley and Goodwin (1980). The apparatus included a large box (26×33×24 cm) connected to a small box (15×22×14 cm) through an opening (5×6 cm). The large box was brightly lit with a standard 100W light bulb, while the small box was kept dark. Following pretreatment with a test drug, mice were placed in the center of the large box and the number of transitions between the large and small boxes was counted for 10 min. […] During the antagonist studies, CGS-8216 was administered 30 min. prior to the test drug.\nas §4, §1"}, "[11]": {"system": "PMS, PND and catamenial epilepsy", "conditions": "cited from earlier work; for clinical effectiveness: PMS, PND, catamenial epilepsy (progesterone), menstrual-cycle correlated epileptic spells (desoxycorticosterone)"}, "[12]": {"system": "GABA receptor-chloride ionophore complex (GR complex)", "assay": "[35S]TBPS binding modulation assay"}}, "note": "Where two headings read alike, the source gives them in different places.", "data": [{"smiles": "O=C1CN=C(c2ccccc2Cl)c2cc([N+](=O)[O-])ccc2N1", "note": "[Clonazepam]", "values": [{"measurement": "ED50 MTZ (metrazol)", "setting": "[1]", "value": 0.009, "unit": "mg/kg"}, {"measurement": "LD50", "setting": "[2]", "value": "> 6000", "unit": "mg/kg"}, {"measurement": "effect on number of light/dark transitions (literature)", "setting": "[3]", "value": "increase the number of transitions"}, {"measurement": "ED50 PICRO (picrotoxin)", "setting": "[4]", "value": 0.043, "unit": "mg/kg"}, {"measurement": "ED50 STR (strychnine)", "setting": "[5]", "value": "NP"}, {"measurement": "ED50 MES (maximal electroshock)", "setting": "[6]", "value": 93, "unit": "mg/kg"}, {"measurement": "% enhancement of basal 36Cl uptake", "setting": "[7]; GABA (25 μM) + clonazepam (1 μM)", "value": "164±2", "unit": "%"}, {"measurement": "% enhancement of basal 36Cl uptake", "setting": "[7]; clonazepam (1 μM), no GABA", "value": "1 ± 0.5", "unit": "%"}, {"measurement": "ED50 BIC (bicuculline)", "setting": "[8]", "value": 0.0086, "unit": "mg/kg"}, {"measurement": "ED50 RR (Rotorod)", "setting": "[9]", "value": 0.184, "unit": "mg/kg"}]}, {"smiles": "CNC1=Nc2ccc(Cl)cc2C(c2ccccc2)=[N+]([O-])C1", "note": "[CDP, reference compound]", "values": [{"measurement": "increase in punished responding vs controls", "setting": "punished responding; 5 min session, p=0.03, FIG. 14", "value": 197.4, "unit": "%"}, {"measurement": "punished responding", "setting": "punished responding; controls 3.11±0.68", "value": "6.14±1.14"}]}, {"smiles": "CN1C(=O)CN=C(c2ccccc2)c2cc(Cl)ccc21", "note": "[Diazepam, reference compound]", "values": [{"measurement": "effect on number of light/dark transitions (literature)", "setting": "[3]", "value": "increase the number of transitions"}, {"measurement": "effect on locomotor activity", "setting": "locomotor activity; acclimated mice", "value": "no effect"}, {"measurement": "total distance traveled, acclimated mice", "setting": "locomotor activity; diazepam 10 mg/kg, controls 2061.2±157.7 cm", "value": "2258.0±897.7", "unit": "cm"}, {"measurement": "total distance, open-field", "setting": "open-field activity; 10 min, vehicle 2004.6 ± 134.6", "value": "4817.7 ± 528.4", "unit": "cm"}, {"measurement": "effect on open-field activity", "setting": "open-field activity; steroids 20 mg/kg", "value": "significant (p<0.01) increase in activity"}, {"measurement": "effect on number of light/dark transitions (words)", "setting": "[10]; 3α-OH-DHP 10, 20, 40 mg/kg, 5α-THDOC 20 mg/kg, diazepam 1.0, 5.0, 10, 20 mg/kg, 20 mg/kg", "value": "significantly (p<0.01) different from controls"}, {"measurement": "number of transitions in 10 min (maximal response)", "setting": "[10]; diazepam 10 mg/kg i.p., FIG. 11", "value": "86.4±5.4", "unit": "transitions"}]}, {"smiles": "O=C1C2C=Nc3ccccc3C2=NN1c1ccccc1", "note": "(stereo not drawn) [CGS-8216, reference compound]", "values": [{"measurement": "block of diazepam's anxiolytic effects (literature)", "setting": "[3]; 1984", "value": "block diazepam's anxiolytic effects"}, {"measurement": "block of anxiolytic effect of 3α-OH-DHP by CGS-8216", "setting": "[10]; CGS-8216 10 mg/kg, 3α-OH-DHP 10 mg/kg, FIG. 13A", "value": "unable to block"}, {"measurement": "block of anxiolytic effect of diazepam by CGS-8216", "setting": "[10]; diazepam 1.0 mg/kg, FIG. 13B", "value": "able to block the anxiolytic effect of diazepam"}, {"measurement": "intrinsic activity in light/dark transition test", "setting": "[10]; p>0.4 vs vehicle", "value": "did not demonstrate any intrinsic activity"}]}, {"smiles": "C[C@]12CC[C@H]3[C@@H](CCC4=CC(=O)CC[C@@]43C)[C@@H]1CC[C@@H]2C(=O)CO", "note": "[desoxycorticosterone]", "values": [{"measurement": "clinical effectiveness", "setting": "[11]", "value": "effective"}]}, {"smiles": "CC(=O)[C@H]1CC[C@H]2[C@@H]3CCC4=CC(=O)CC[C@]4(C)[C@H]3CC[C@]12C", "note": "[PROGESTERONE, reference compound]", "values": [{"measurement": "dose-response relationship in the treatment of PMS", "setting": "[11]; Maddocks et al., Dennerstein et al.", "value": "no dose-response relationship exists"}, {"measurement": "clinical effectiveness", "setting": "[11]", "value": "not consistently effective"}, {"measurement": "potency/activity at the GR complex", "setting": "[12]; modulation of [35S]TBPS binding", "value": "very low potency"}, {"measurement": "IC50", "setting": "[12]; read-out: IC50, inhibition of [35S]-TBPS binding, +5 μM GABA, in the presence of 5 μM GABA", "value": 5.2, "unit": "µM"}, {"measurement": "IC50", "setting": "[12]; read-out: IC50, inhibition of [35S]-TBPS binding, No GABA, washed synaptoneurosomes, no GABA added", "value": "> 100", "unit": "µM"}, {"measurement": "Max. Inhib., maximal % of specifically bound [35S]-TBPS displaced", "setting": "[12]; saturating concentrations of test compound", "value": 100, "unit": "%"}]}]}
